The values that follow come from US4620871A (priority 1980, dated 1986).

One experiment deals with Tobacco callus. Nature of the experiment: Growth of tobacco callus vs kinetin (Example 14). The experiment is classed as cell-based. The following applies: 2 ppm active agent. On the procedure:
An untreated culture medium served as control. Tobacco callus was grown on the treated and untreated culture media (incubation period: 3 weeks), and the daily growth, the increase in cell number and the frequency of mitosis were measured according to the method of Skoog.
The test described in Example 13 was repeated so that a culture medium containing 1 ppm of kinetin was used as control, and the compositions according to the invention were applied in amounts corresponding to 2 ppm of active agent.

The next experiment relates to Alfalfa. Nature of the experiment: Alfalfa field tests 1979, Boly (Example 26). The experiment is classed as in vivo. From the text:
The effects of the compositions according to the invention exerted on the crop yield (green yield), crude protein content, protein nitrogen content and C/N ratio of alfalfa, observed under field conditions in the tests performed in 1979 at the Agricultural Combinate of Boly, Hungary, are listed in Table 17.

`N=C(N)N.N=C(N)N.Oc1nnc(O)c2ccccc12` [1,4-dihydroxyphthalazine diguanidine salt]: in the experiment with Tobacco callus (kinetin 1 ppm), the “Dry weight of the callus” value is on record as 170.92 mg and the Speed of growth stood at 98.23. Moreover, in the experiment with Tobacco callus (Nicotiana tabacum, 504 h, kinetin 1 ppm = 100, read-out: Speed of growth, Index %), the activity at 2 ppm was 98.2%. For the same compound, in the experiment on Alfalfa (control 8.3), the P2O5 content is 10.3 % of dry substance. In addition, the Crude protein content with Alfalfa (control 21.3) is on record as 25.4 % of dry substance. In addition, the Green yield in the experiment with Alfalfa (control 120) came out at 146 q/ha. Besides, in the experiment on Alfalfa (in vivo), the “Crude protein content, increase” value was 19.4%; the “Green yield, increase” value is listed as 22.3%; the “P2O5 content, increase” value came to 24.6%.
